Measured values taken from patent US9187449B2, “Compounds with increased specificity for the treatment of glioma” (University of Tennessee Research Foundation, priority 2013, dated 2015).
Structures can show the parent of a compound that is named as a salt. Where two headings read alike, the source gives them in different places.

Columns and labels:
Type in all cases: cell-based
[1] = test system: Normal astrocytes; experiment: MTT cell viability assay, normal primary astrocytes (toxicity model); conditions: primary astrocyte cultures from normal mouse brains, five days exposure, mean of triplicate experiments, read-out: Mean IC50 ± SD, Normal astrocytes
Text: (§1) The synthesized THI analogs were screened for their efficacy against established human glioma cell lines using the MTT colorimetric assay. This assay measures cell viability by quantitating purple formazan crystal formation caused by the reduction of tetrazolium salts in metabolically active cells. The inventors performed a series of experiments to determine the best concentration range for each compound to generate a half-maximal inhibitory concentration (IC50). The IC50 value for each compound represents the mean of triplicate experiments. Primary astrocytes established from the cortices of normal mouse pups were used as the model system to represent the degree of toxicity that would be expected in normal astrocytes in the human brain. The glioma cells and normal astrocytes were exposed to escalating concentrations of each THI compound for five days and then subjected to the MTT assay. Cell viability data at each concentration was used to calculate IC50 values.

[2] = test system: A172; experiment: MTT cell viability assay, A172 glioma cells; conditions: human glioma cell line A172, five days exposure, mean of triplicate experiments, read-out: Mean IC50 ± SD, A172
Text: as §1

[3] = test system: T98G; experiment: MTT cell viability assay, T98G glioma cells; conditions: human glioma cell line T98G, five days exposure, mean of triplicate experiments, read-out: Mean IC50 ± SD, T98G
Text: as §1

[4] = test system: U87; experiment: MTT cell viability assay, U87 glioma cells; conditions: human glioma cell line U87, five days exposure, mean of triplicate experiments, read-out: Mean IC50 ± SD, U87
Text: as §1

[5] = test system: LN18; experiment: MTT cell viability assay, LN18 glioma cells; conditions: human glioma cell line LN18, five days exposure, mean of triplicate experiments, read-out: Mean IC50 ± SD, LN18
Text: as §1

SMILES | IC50 [2] [µM] | IC50 [3] [µM] | IC50 [4] [µM] | IC50 [5] [µM] | IC50 ([2]; A 172, 120 h) [µM] | IC50 ([3]; 120 h) [µM] | IC50 ([4]; U-87 MG, 120 h) [µM] | IC50 ([5]; LN-18, 120 h) [µM] | IC50 [1] [µM] | IC50 ([1]; 120 h) [µM]
Cn1nnc2c(C(N)=O)ncn2c1=O [TMZ, reference compound] | 65.3 ± 12 | 571 ± 50.4 | 49.1 ± 5.15 | 392 ± 77.2 |  |  |  |  | > 1000 | 
COc1ccncc1-c1ccc(CC2NCCc3c(OC)ccc(OC)c32)cc1 (stereo not shown) [EDL-358 (11), 5,8-dimethoxy-1-(4-(4-methoxypyridin-3-yl)benzyl)-1,2,3,4-tetrahydroisoquinoline dihydrochloride] |  |  |  |  | 8.25 | 13.8 | 16.2 | 13.7 |  | 24.6 ± 0.79
COc1cc2c(cc1OC)C(Cc1ccc(-c3cnccc3OC)cc1)NCC2 (stereo not shown) [EDL-291 (9)] | 41.2 | 59.5 ± 7.61 | 66.5 ± 1.12 | 37 |  |  |  |  | 51.1 ± 1.38 | 

More lines, main results first:

IC50 [2] [µM] | IC50 [3] [µM] | IC50 [4] [µM] | IC50 [5] [µM] | IC50 ([2]; A 172, 120 h) [µM] | IC50 ([3]; 120 h) [µM] | IC50 ([4]; U-87 MG, 120 h) [µM] | IC50 ([5]; LN-18, 120 h) [µM] | SMILES | IC50 [1] [µM] | IC50 ([1]; 120 h) [µM]
 |  |  |  | 15.2 ± 0.98 | 14.8 ± 0.68 | 10.5 | 11.7 ± 0.17 | COc1ccncc1-c1ccc(CCCC2NCCc3c(OC)ccc(OC)c32)cc1 (stereo not shown) [EDL-361 (13), 5,8-dimethoxy-1-(3-(4-(4-methoxypyridin-3-yl)phenyl)propyl)-1,2,3,4-tetrahydroisoquinoline dihydrochloride] |  | 11.9 ± 0.56
 |  |  |  | 5.6 | 10.4 | 8.4 | 5.42 | COc1ccncc1-c1ccc(CCC2NCCc3c(OC)ccc(OC)c32)cc1 (stereo not shown) [EDL-360 (12), 5,8-dimethoxy-1-(4-(4-methoxypyridin-3-yl)phenethyl)-1,2,3,4-tetrahydroisoquinoline dihydrochloride] |  | 19.7 ± 2.44
